According to paper PMC5263248, “Blood Group Antigen Recognition via the Group A Streptococcal M Protein Mediates Host Colonization” (mBio, 2017):

Biological target: T1, M1 protein (Streptococcus pyogenes, UniProt Q99XV0)
T1 construct: gene emm1; captured on NTA chip
Test: SPR, single-cycle, steady-state affinity
Type: binding
Details: protein captured on NTA chip via His tag, PBS, 25 °C

T1 sequence (Q99XV0 entry or part of it): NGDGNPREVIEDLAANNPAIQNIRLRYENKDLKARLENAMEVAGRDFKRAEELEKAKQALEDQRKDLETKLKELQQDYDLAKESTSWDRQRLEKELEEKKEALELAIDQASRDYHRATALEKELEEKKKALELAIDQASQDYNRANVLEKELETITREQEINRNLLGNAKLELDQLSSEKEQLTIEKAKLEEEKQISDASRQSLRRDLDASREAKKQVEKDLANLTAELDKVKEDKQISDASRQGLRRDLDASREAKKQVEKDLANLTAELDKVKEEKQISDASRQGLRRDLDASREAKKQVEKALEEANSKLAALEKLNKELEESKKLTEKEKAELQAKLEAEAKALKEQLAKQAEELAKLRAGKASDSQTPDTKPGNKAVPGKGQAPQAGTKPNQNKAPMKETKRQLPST

SMILES | Kd [µM]
CC(=O)N[C@H]1[C@@H](O[C@H]2[C@@H](O)[C@@H](CO)OC(O)[C@@H]2O[C@@H]2O[C@@H](C)[C@@H](O)[C@@H](O)[C@@H]2O)O[C@H](CO)[C@H](O)[C@@H]1O (some centres unmarked) [7K, GalNAcα1-3(Fucα1-2)Gal] | 2.5 ± 0.4
C[C@@H]1O[C@@H](O[C@H]2C(O)O[C@H](CO)[C@H](O)[C@@H]2O[C@H]2O[C@H](CO)[C@H](O)[C@H](O)[C@H]2O)[C@@H](O)[C@H](O)[C@@H]1O (some centres unmarked) [blood group B trisaccharide, Galα1-3(Fucα1-2)Gal] | 0.518 ± 0.0513
